One series has as its target T1, PDE9A2 (181–506) (Homo sapiens, UniProt O76083).
T1 construct: PDE9A2 (181–506)
Briefly: PDE activity assay, PDE9 catalytic domain. The class given is biochemical. The following applies: means ± SD of at least three independent experiments.

Series [1] in a line: Oxygen Radical Absorbance Capacity (ORAC-FL) assay. The conditions noted are these: Trolox as standard.
Description: The assays were performed in 75 mM PBS (pH 7.4) and all the tested compounds were dissolved in DMSO and diluted with the PBS. Trolox was used as a standard (1–10 μM final concentration). The tested compounds at different concentrations (20 μL, final concentration: 2 μM) and fluorescein (FL, 120 μL, final concentration: 300 nM) were placed in the wells of a black 96-well plate. The mixture was incubated for 10 min at 37 °C and then, APPH solution (60 μL, final concentration: 12 mM diluted by 75 mM PBS) was added rapidly. […] A blank (FL + AAPH), with PBS replacing the compounds and Trolox was used for calibration in each assay. The compounds were tested at different concentrations (0.5–10 μM). The experiments were performed in three independent runs for each sample. The fluorescence measurements were normalized to that of the blank (without antioxidant). The area under the fluorescence decay curve (AUC) was calculated using the following equation (eq. 2):
where f0 is the fluorescence reading at 0 min and fi is the fluorescence reading at time i. The net AUC was calculated by the expression AUCsample − AUCblank. Regression equations between net AUC and Trolox concentrations were calculated. The final results were expressed in μM of Trolox equivalent/μM of pure compounds.
The nature of series [2]: PAMPA-BBB in vitro blood-brain barrier permeation assay. The class given is in vitro ADME. The conditions noted are these: for Papp at 10 h, 100 μg/mL: PAMPA, read-out: Permeability; for prediction of penetration into the CNS: from PAMPA-BBB Pe.
Description: The blood–brain barrier penetration capacity of the compounds was evaluated by using the parallel artificial membrane permeation assay (PAMPA). […] The porcine brain lipid (PBL) was obtained from Avanti Polar Lipids. The donor microplate (PVDF membrane, pore size of 0.45 nm) and the acceptor microplate were from Millipore. The acceptor 96-well microplate (COSTAR) was filled with 300 μL of a PBS/EtOH mixture (7:3) and the filter membrane was impregnated with 4 μL of PBL in dodecane (20 mg/mL). The compounds were dissolved in DMSO at a concentration of 5 mg/mL and diluted with the PBS/EtOH mixture (7:3) to a concentration of 100 μg /mL. Then, 200 μL of this solution was added to the donor wells and the wells were carefully placed on the acceptor plate, which was then incubated for 10 h at 25 °C in a vibrationless environment. After the incubation, the donor plate was removed and the concentration of compounds in the acceptor wells was determined with a UV plate reader (Flexstation 3). Each sample was analyzed at five wavelengths in four wells, and at least three independent runs were performed. The results are expressed as the mean ± standard deviation. In these experiments, 13 quality control standards of known BBB permeability were included to validate the analysis set.
where Vd is the volume in the donor well, Va is the volume in acceptor well, A is the filter area, t is the permeation time, [drug]acceptor is the absorbance of the compound in the acceptor well, and [drug]equilibrium is the theoretical equilibrium absorbance.
Series [3] concerns the target T2, Aβ1-42 (Homo sapiens, UniProt P05067).
T2 construct: the Aβ1-42 stock solution was diluted with HEPES buffer; purchased Sigma
Briefly: ThT assay, inhibition of Cu^2+-induced Aβ1-42 aggregation. The class given is biochemical. The following applies: [Aβ1-42] = 25 μM, compound 50 μM, [Cu^2+] = 25 μM, 37 °C, 24 h.
Description: The Aβ1−42 sample (Sigma, US) was pretreated with hexafluoro-2-propanol (HFIP) and dissolved in ammonium hydroxide (1% v/v) to prepare a stock solution (2000 μM) that was aliquoted into small samples and stored at −80 °C.

The target in the next series is T3, Aβ1-42 fibrils (Homo sapiens, UniProt P05067).
T3 construct: purchased Sigma
T3 sequence (P05067 672-713 limits assumed): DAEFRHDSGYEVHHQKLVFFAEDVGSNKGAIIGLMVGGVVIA
Nature of the series: ThT assay, disaggregation of Cu^2+-induced Aβ1-42 fibrils. The class given is biochemical. The following applies: [Aβ1-42] = 25 μM, compound 50 μM, [Cu^2+] = 25 μM, additional 24 h. The protocol:
For assaying the disaggregation of the copper (II)-induced Aβ1-42 fibrils, the Aβ1-42 stock solution was first diluted in HEPES buffer ([…], pH 6.6). The mixture of the peptide (10 μL, 25 μM final concentration) and copper (II) (10 μL, 25 μM final concentration) was then incubated at 37 °C for 24 h. Then, the test compound (10 μL, 50 μM final concentration) was added and incubated at 37 °C for an additional 24 h. Thereafter, 30 μL of the sample was diluted to a final volume of 200 μL with 50 mM glycine-NaOH buffer (pH 8.0) containing thioflavin-T (5 μM) in the dark. The detection method used was the same as that described above.

The target of series [4] is T2, Aβ1-42. Nature of the series: Transmission electron microscopy (TEM) assay of Aβ1-42. The class given is biochemical. The following applies: [Aβ1-42] = 25 μM, compound 50 μM, [Cu^2+] = 25 μM, 37 °C, 24 h. As for the experimental part:
The assays were performed as reported previously. For the TEM assay of copper (II)-induced Aβ1-42 aggregation and the disaggregation of the fibrils, the samples were pretreated as described for the ThT assay. Samples (10 μL) were placed on a carbon-coated copper/rhodium grid for 2 min. Then, each grid was stained with uranyl acetate (1%, 5 μL) for 2 min. After the excess staining solution was drained off, the specimen was transferred for imaging by a transmission electron microscope (JEOL JEM-1400).

In another series the target is T4, PDE7A1 (130–482) (Homo sapiens, UniProt Q13946).
T4 construct: PDE7A1 (130–482)
T4 sequence (Q13946 130-482): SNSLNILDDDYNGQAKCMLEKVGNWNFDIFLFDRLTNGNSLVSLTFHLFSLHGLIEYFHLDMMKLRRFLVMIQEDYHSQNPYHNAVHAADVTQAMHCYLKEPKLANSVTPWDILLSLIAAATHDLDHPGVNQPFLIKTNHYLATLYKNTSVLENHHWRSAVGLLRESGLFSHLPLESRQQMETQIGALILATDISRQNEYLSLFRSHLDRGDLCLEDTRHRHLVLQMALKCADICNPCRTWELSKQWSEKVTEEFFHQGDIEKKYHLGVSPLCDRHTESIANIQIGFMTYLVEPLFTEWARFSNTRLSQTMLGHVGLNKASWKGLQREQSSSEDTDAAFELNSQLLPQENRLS
Nature of the series: PDE activity assay, PDE7A1 catalytic domain. The class given is biochemical.

In the next series the target is T5, PDE1B2 (10–487) (Homo sapiens, UniProt Q01064).
T5 construct: PDE1B2 (10–487)
T5 sequence (Q01064 10-487 isoform Q01064-2): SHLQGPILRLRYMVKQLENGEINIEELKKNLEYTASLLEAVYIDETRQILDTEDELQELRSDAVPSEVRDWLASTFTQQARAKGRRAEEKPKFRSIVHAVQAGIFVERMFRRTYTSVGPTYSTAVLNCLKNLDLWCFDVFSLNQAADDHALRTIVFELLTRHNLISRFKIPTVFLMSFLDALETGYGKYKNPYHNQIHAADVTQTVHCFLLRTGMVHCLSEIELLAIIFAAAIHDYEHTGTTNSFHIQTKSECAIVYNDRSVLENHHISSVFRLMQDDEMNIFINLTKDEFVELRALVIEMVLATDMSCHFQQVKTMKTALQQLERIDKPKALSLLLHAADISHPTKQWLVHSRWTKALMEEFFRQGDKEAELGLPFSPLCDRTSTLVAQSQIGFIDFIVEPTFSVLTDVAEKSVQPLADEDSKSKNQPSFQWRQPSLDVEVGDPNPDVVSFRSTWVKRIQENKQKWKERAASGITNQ
Nature of the series: PDE activity assay, PDE1B2 catalytic domain. The class given is biochemical.

In another series the target is T6, PDE4D2 (86–413) (Homo sapiens, UniProt Q08499).
T6 construct: PDE4D2 (86–413)
T6 sequence (Q08499 388-715): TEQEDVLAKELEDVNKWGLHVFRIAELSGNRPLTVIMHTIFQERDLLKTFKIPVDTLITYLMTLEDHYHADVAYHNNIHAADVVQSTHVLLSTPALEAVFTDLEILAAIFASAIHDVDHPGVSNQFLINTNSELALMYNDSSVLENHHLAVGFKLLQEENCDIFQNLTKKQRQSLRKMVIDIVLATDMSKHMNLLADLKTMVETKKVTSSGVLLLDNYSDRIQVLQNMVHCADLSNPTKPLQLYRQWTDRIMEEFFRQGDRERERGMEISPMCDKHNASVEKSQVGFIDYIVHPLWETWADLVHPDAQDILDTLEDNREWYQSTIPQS
Nature of the series: PDE activity assay, PDE4D2 catalytic domain. The class given is biochemical.

Series [5] in a line: Lipid-water distribution coefficient, shake-flask 1-octanol/water. The class given is physicochemical. The following applies: 1-octanol/water (1:1), means of at least three independent tests.
Another series concerns the target T7, PDE2A3 (580–941) (Homo sapiens, UniProt O00408).
T7 construct: PDE2A3 (580–941)
Nature of the series: PDE activity assay, PDE2A3 catalytic domain. The class given is biochemical.

In a further series the target is T8, PDE8A1 (480–820) (Homo sapiens, UniProt O60658).
T8 construct: PDE8A1 (480–820)
T8 sequence (O60658 480-820): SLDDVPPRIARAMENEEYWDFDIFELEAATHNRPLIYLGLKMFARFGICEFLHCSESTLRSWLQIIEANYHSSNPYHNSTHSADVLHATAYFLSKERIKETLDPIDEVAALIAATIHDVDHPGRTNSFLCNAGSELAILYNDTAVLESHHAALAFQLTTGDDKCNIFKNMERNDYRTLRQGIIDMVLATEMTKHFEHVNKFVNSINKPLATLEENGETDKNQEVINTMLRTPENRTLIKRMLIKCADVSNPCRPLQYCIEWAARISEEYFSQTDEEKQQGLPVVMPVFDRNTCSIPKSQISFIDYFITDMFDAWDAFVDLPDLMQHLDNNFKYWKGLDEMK
Briefly: PDE activity assay, PDE8A1 catalytic domain. The class given is biochemical.

Another series addresses T9, PDE10A2 (448–789) (Homo sapiens, UniProt Q9Y233).
T9 construct: PDE10A2 (448–789)
Briefly: PDE activity assay, PDE10A2 catalytic domain. The class given is biochemical.

For a further series, the target named is PDE5A1 (535–860) (Homo sapiens, UniProt O76074). Briefly: PDE activity assay, PDE5A1 catalytic domain. The class given is biochemical.
The target in another series is T10, PDE3A (679–1087) (Homo sapiens, UniProt Q14432).
T10 construct: PDE3A (679–1087)
T10 sequence (Q14432 679-1087): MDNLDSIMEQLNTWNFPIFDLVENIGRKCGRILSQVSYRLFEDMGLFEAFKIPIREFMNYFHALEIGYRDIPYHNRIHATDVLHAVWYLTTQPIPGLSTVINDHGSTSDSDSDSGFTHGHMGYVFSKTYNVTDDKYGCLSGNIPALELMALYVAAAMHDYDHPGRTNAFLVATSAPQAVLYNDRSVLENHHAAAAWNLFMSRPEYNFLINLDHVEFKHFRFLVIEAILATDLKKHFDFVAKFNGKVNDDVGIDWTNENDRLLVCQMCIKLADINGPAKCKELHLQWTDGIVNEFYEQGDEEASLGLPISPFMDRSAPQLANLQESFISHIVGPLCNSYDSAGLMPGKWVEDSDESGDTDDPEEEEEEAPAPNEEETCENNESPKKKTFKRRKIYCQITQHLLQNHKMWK
Nature of the series: PDE activity assay, PDE3A catalytic domain. The class given is biochemical.

Where [6] appears, read: PBS:EtOH (70:30), mean ± SD of three independent experiments.

Read-outs that look alike come from different tables or passages of the source. Where only a bound is given, the exact number is not on record here.

T1 sequence (O76083 241-566): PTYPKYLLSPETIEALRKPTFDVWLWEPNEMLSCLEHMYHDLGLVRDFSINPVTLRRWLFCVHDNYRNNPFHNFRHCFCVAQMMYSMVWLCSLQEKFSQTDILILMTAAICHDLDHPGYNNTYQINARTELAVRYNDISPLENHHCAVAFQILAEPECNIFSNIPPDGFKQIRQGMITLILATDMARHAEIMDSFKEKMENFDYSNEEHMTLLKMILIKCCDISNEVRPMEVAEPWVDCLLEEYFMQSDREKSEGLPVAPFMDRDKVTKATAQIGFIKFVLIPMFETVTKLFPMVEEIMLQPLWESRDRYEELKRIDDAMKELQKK
T2 sequence (P05067 672-713 limits assumed): as the sequence (P05067 672-713 limits assumed) above
T7 sequence (O00408 580-941): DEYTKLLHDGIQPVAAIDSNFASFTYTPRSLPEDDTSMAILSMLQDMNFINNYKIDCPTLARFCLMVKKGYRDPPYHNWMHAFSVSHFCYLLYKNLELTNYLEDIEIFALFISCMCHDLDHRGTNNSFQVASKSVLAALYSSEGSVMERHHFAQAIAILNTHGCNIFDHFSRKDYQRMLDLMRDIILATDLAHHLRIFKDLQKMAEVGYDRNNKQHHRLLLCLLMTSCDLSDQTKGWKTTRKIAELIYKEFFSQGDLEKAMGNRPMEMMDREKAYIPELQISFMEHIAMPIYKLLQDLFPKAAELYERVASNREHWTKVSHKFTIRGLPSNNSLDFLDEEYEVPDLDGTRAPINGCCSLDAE
T9 sequence (Q9Y233 714-1055): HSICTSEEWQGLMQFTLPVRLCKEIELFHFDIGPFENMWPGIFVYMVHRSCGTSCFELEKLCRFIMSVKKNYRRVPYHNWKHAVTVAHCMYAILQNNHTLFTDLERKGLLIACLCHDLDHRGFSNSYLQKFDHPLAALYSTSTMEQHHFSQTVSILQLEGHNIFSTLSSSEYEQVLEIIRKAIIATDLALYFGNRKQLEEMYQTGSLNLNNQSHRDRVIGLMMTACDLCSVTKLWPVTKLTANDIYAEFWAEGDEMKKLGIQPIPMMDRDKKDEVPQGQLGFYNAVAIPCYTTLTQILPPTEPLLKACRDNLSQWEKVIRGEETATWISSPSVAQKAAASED
Description for PDE10A2 (448–789): (§1) The enzymatic activities of the catalytic domains of PDE9 and other PDEs were measured by using cGMP or cAMP as substrates. The assay buffer contained 20–50 mM Tris–HCl (pH 7.5–8.0), 10 mM MgCl2 or 4 mM MnCl2, 1 mM DTT, and 10–20 nM ^3H-cGMP or ^3H-cAMP (20000–30000 cpm/assay, GE Healthcare). The reaction was performed at room temperature for 15 min and then terminated by the addition of 0.2 M ZnSO4. The addition of 0.25 M BaSO4 precipitated the generated ^3H-GMP, whereas the unreacted ^3H-cGMP remained in solution. The radioactivity in the supernatant was measured in 2.5 mL with an Ultim Gold liquid scintillation counter. […] The IC50 values were calculated by nonlinear regression method by using GraphPad Prism 5.0 Software.
Description for PDE1B2 (10–487): as §1
Description for PDE2A3 (580–941): as §1
Description for PDE3A (679–1087): as §1
Description for PDE4D2 (86–413): as §1
Description for PDE5A1 (535–860): as §1
Description for PDE7A1 (130–482): as §1
Description for PDE8A1 (480–820): as §1
Description for PDE9A2 (181–506): as §1

For `C[C@H](NCc1ccccc1O)c1nc2c(cnn2C2CCCC2)c(=O)[nH]1` [Compound 18], the IC50 – broadly, the midpoint of a concentration-inhibition curve – against PDE9A2 (181–506) stood at 114 ± 7 nM. Further, the ORAC in series [1] is 4.51 ± 0.43 μmol of Trolox equiv/μmol tested compound.
Consider `C[C@@H](/N=C/c1cccc(Br)n1)c1nc2c(cnn2C2CCCC2)c(=O)[nH]1` [Compound 28], for which, on PDE9A2 (181–506), the IC50 came to 1160 ± 90 nM. Also, in [1], the ORAC is 0 μmol of Trolox equiv/μmol tested compound.
For the compound `CN(C)CCCN1c2ccccc2Sc2ccc(Cl)cc21` [Chlorpromazine, reference compound], in [2], the Papp at 10 h, 100 μg/mL worked out at 6 ± 0.3 ×10⁻⁶ cm/s.
In the case of `COc1ccc(CN[C@H](C)c2nc3c(cnn3C3CCOCC3)c(=O)[nH]2)c(O)c1` [Compound 17], in [2] (setting [6]), the Papp at 10 h, 100 μg/mL was 6.54 ± 0.76 ×10⁻⁶ cm/s. In addition, in series [2], the “prediction of penetration into the CNS” value was “CNS+ (Compounds of high BBB permeation (CNS+) Pe > 4.7)”. On PDE9A2 (181–506), this compound came in with an IC50 of 51 ± 2 nM. The ORAC in series [1] is given as 5.13 ± 0.22 μmol of Trolox equiv/μmol tested compound.
`C[C@@H](/N=C/c1ccccc1O)c1nc2c(cnn2C2CCCC2)c(=O)[nH]1` [Compound 12]: the IC50 against PDE9A2 (181–506) worked out at 211 ± 6 nM. Also, in [1], the ORAC is 0.23 ± 0.02 μmol of Trolox equiv/μmol tested compound.
`C[C@@H](NCc1cccc(Br)n1)c1nc2c(cnn2C2CCCC2)c(=O)[nH]1` [Compound 29] yielded an IC50 against PDE9A2 (181–506) of 38 ± 3 nM. In addition, in [1], the ORAC is recorded as 0 μmol of Trolox equiv/μmol tested compound. Moreover, at Aβ1-42 [3], the “inhibitory ratio of Cu^2+-induced Aβ1-42 aggregation (ThT)” value (from here on “inhibitory ratio”) is 59.1%.
For the compound `Oc1c(I)cc(Cl)c2cccnc12` [CQ, clioquinol, reference compound], the “disaggregation of Cu^2+-induced Aβ1-42 fibrils (ThT)” value at Aβ1-42 fibrils is 50.9%. Further, at Aβ1-42 [4], the “Aβ fibrils by TEM, disaggregation of preformed fibrils” value is “drastically reduced the amount of Aβ fibrils” and the “Aβ fibrils by TEM, inhibition of Cu^2+-induced aggregation” value is “fewer Aβ fibrils were detected”. Besides, the “oxygen radical absorbance capacity, ORAC-FL value” in series [1] amounted to 0.62 ORAC-FL units. Also, at Aβ1-42 [3], the “inhibitory ratio” value came out at 52.5%.
At PDE9A2 (181–506), `C[C@@H](NCc1cc(Cl)ccc1O)c1nc2c(cnn2C2CCCC2)c(=O)[nH]1` [Compound 21] came in with an IC50 of 47 ± 5 nM. Also, the ORAC in series [1] is recorded as 5.84 ± 0.50 μmol of Trolox equiv/μmol tested compound. The “inhibitory ratio” value on Aβ1-42 [3] is 65.7%.
Regarding `C[C@@H](NCc1cc(N(C)C)ccc1O)c1nc2c(cnn2C2CCCC2)c(=O)[nH]1` [Compound 24], on PDE9A2 (181–506), the midpoint of inhibition, the IC50, lay at 47 ± 3 nM. For the same compound, in series [1], the ORAC is reported as 5.62 ± 0.02 μmol of Trolox equiv/μmol tested compound.
Taken in the same sequence, the figures for `C[C@@H](NCc1ccccn1)c1nc2c(cnn2C2CCCC2)c(=O)[nH]1` [Compound 26] were 77 ± 3 nM and 0 μmol of Trolox equiv/μmol tested compound.
Consider `COc1ccc2[nH]cc(CCNC(C)=O)c2c1` [melatonin, reference compound], for which the “oxygen radical absorbance capacity, ORAC-FL value” in series [1] was determined as 2.00 ORAC-FL units.
Regarding `COc1ccc(/C=N/[C@H](C)c2nc3c(cnn3C3CCOCC3)c(=O)[nH]2)c(O)c1` [Compound 14], the IC50 at PDE9A2 (181–506) came out at 12 ± 1 nM. In series [1], the ORAC was 0.22 ± 0.12 μmol of Trolox equiv/μmol tested compound.
For `C[C@H](NCc1ccccn1)c1nc2c(cnn2C2CCCC2)c(=O)[nH]1` [Compound 25] the same measures were 310 ± 13 nM and 0 μmol of Trolox equiv/μmol tested compound.
For `C[C@@H](NCc1ccccc1O)c1nc2c(cnn2C2CCCC2)c(=O)[nH]1` [Compound 15] the same measures were 58 ± 2 nM and 4.75 ± 0.72 μmol of Trolox equiv/μmol tested compound.
Taken in the same sequence, the figures for `Cc1cccc(CN[C@H](C)c2nc3c(cnn3C3CCCC3)c(=O)[nH]2)n1` [Compound 27] were 60 ± 2 nM and 0 μmol of Trolox equiv/μmol tested compound.
Turning to `COc1ccc(O)c(CN[C@H](C)c2nc3c(cnn3C3CCCC3)c(=O)[nH]2)c1` [Compound 19], the IC50 against PDE9A2 (181–506) is 33 ± 3 nM. The ORAC in series [1] was 3.54 ± 0.25 μmol of Trolox equiv/μmol tested compound.
For the compound `C[C@@H](NCc1cc(F)ccc1O)c1nc2c(cnn2C2CCCC2)c(=O)[nH]1` [Compound 22], the IC50 against PDE7A1 (130–482) was > 40000 nM; at PDE1B2 (10–487) it was 7000 nM; at PDE9A2 (181–506) it was 31 ± 1 nM; at PDE4D2 (86–413), 11000 nM; on PDE2A3 (580–941), 13000 nM; against PDE8A1 (480–820) it was > 50000 nM. Moreover, the IC50 at PDE10A2 (448–789) was 33000 nM; against PDE5A1 (535–860), 1600 nM; against PDE3A (679–1087) it was > 10000 nM. Further, on PDE7A1 (130–482), the “fold of selectivity of PDE9 over PDE7A1” value is > 1278 fold. For the same compound, in [2] (setting [6]), the Papp at 10 h, 100 μg/mL came out at 33.2 ± 4.76 ×10⁻⁶ cm/s. Besides, the “prediction of penetration into the CNS” value in [2] is “CNS+ (Compounds of high BBB permeation (CNS+) Pe > 4.7)”. The “fold of selectivity of PDE9 over PDE1B2” value on PDE1B2 (10–487) came to 234 fold. In addition, at PDE4D2 (86–413), the “fold of selectivity of PDE9 over PDE4D2” value is reported as 355 fold. In addition, the logP (commonly the decadic logarithm of the partition coefficient of the neutral form, usually between octanol and water) at 30 min in [5] turned out to be 1.51. Besides, at PDE2A3 (580–941), the “fold of selectivity of PDE9 over PDE2A3” value was 421 fold. The “fold of selectivity of PDE9 over PDE8A1” value on PDE8A1 (480–820) was > 1598 fold. In addition, the ORAC in series [1] was 5.52 ± 0.51 μmol of Trolox equiv/μmol tested compound. In addition, the “fold of selectivity of PDE9 over PDE5A1” value on PDE5A1 (535–860) came to 50 fold. Further, on PDE3A (679–1087), the “fold of selectivity of PDE9 over PDE3A” value turned out to be 323 fold.
With `COc1ccc(/C=N/[C@H](C)c2nc3c(cnn3C3CCCC3)c(=O)[nH]2)c(O)c1` [Compound 13], on PDE9A2 (181–506), the IC50 came out at 35 ± 3 nM. In addition, the ORAC in [1] is 0.15 ± 0.01 μmol of Trolox equiv/μmol tested compound.
Taken in the same sequence, the figures for `COc1cccc(CN[C@H](C)c2nc3c(cnn3C3CCCC3)c(=O)[nH]2)c1O` [Compound 20] were 33 ± 4 nM and 3.50 ± 0.01 μmol of Trolox equiv/μmol tested compound.
For `C[C@@H](NCc1cc([N+](=O)[O-])ccc1O)c1nc2c(cnn2C2CCCC2)c(=O)[nH]1` [Compound 23] the same measures were 36 ± 4 nM and 1.02 ± 0.05 μmol of Trolox equiv/μmol tested compound.

These data come from publication PMC4766439, “Discovery of novel PDE9 inhibitors capable of inhibiting Aβ aggregation as potential candidates for the treatment of Alzheimer’s disease” (Scientific Reports, 2016).
